From the METLIN SMRT retention time set (Domingo-Almenara et al. 2019)

Assay: gradient 5% acetonitrile 3 min, to 50% in 2 min, to 85% in 15 min, held 3 min, 100 µL/min
Conditions: column: Zorbax Extend-C18 2.1 x 50 mm; eluents: water / acetonitrile, 0.1% formic acid
How it was run: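 The mobile phases were water and acetonitrile, each with 0.1% formic acid, pumped at 100 μL/min through a Zorbax Extend-C18 column (2.1 × 50 mm, 1.8 μm). Pure standards were injected as mixtures of ~100 molecules and detected by a quadrupole time-of-flight mass spectrometer in positive and negative ionization mode. Retention time came from computationally picked adduct peaks, each inspected by hand.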

Compound	RP-LC retention time [s]
CCn1cc(-c2nc(C)c(C(=O)Nc3ccc(F)cc3)s2)c2cccnc21	999
CCc1ccc(S(=O)(=O)c2cnc(N3CCN(c4cc(C)ccc4C)CC3)nc2N)cc1	1400
NC(=O)c1n[nH]c2c1CCCCCC2	644
O=C(CSc1nc2ncccc2[nH]1)N1CCN(c2ccc(F)cc2)CC1	649
COc1ccc(C2C(C(=O)NCCN(C)C)c3cc(OC)c(OC)cc3C(=O)N2C)cc1OC (stereo unspecified)	589
CCOC(=O)COc1ccccc1C1CC(c2cccs2)=NN1C(=O)c1ccco1 (stereo unspecified)	941
CC(C)CCNC(=O)Nc1ccc2c(c1)CCN2S(C)(=O)=O	784
Cc1ccc(-n2nc3c(N4CCCC(C(=O)NCc5ccccc5Cl)C4)nnc(C)c3c2C)cc1 (stereo unspecified)	804
CCOc1cccc(C2CC(c3ccc(Br)cc3)=NC3(CCN(C)CC3)N2)c1O (stereo unspecified)	649
COC(=O)c1ccc(NC(=O)NCc2noc3ccc(C)cc23)cc1	868
CC(C)(C)C(=O)Nc1cnc(-c2ccc(F)cc2)nc1	960
Cc1cc(-c2csc(S(=O)(=O)NCCc3ccc(S(N)(=O)=O)cc3)c2)on1	744
COc1ccc(NC(=O)C(C)C2CCN(C(=O)Nc3ccccc3)CC2)c(OC)c1 (stereo unspecified)	810
CCCc1noc(-c2ccc3nnc(CC(=O)Nc4ccc(C)cc4F)n3c2)n1	940
NCCc1ccc(S(=O)(=O)F)cc1	653
Cc1ccc(NC(=O)Cn2c(=O)c3cc(-c4cccs4)nn3c3ncccc32)cc1F	924
COc1cc(CN2CCCC2c2cc(C)on2)cc(OC)c1O (stereo unspecified)	582
O=C(NC1(c2nc(C3CC3)no2)CCCCC1)c1cc(-c2ccc(F)cc2)n[nH]1	905
O=C1CCCCC(C(=O)N2CCOCC2)N1 (stereo unspecified)	575
CN(C)c1ccc(-c2nc(-c3cn(Cc4cccc(F)c4)nn3)no2)cc1	1020
Nc1ccc(SCC(=O)Nc2nc(-c3ccccc3)cs2)cc1	817
CCOC(=O)c1c(NC(=O)CN2CCN(CC)CC2)sc(C)c1C	596
Cc1ccccc1OCC(O)CN1CCN(c2ccc(Cl)cc2)CC1 (stereo unspecified)	787
CC1=C(c2cccc(Cl)c2)S(=O)(=O)N=C1N1CCCN(C(=O)C2CC2)CC1	763
CC1=C(c2cccc(Cl)c2)S(=O)(=O)N=C1N1CCC(NC(=O)C2CCC2)CC1	840
NC(=O)c1ccc2c(c1)CCN2C(=O)C1CCCC1	698

Compound	RP-LC retention time [s]
COc1ccc(-c2nc(-c3ccc4c(c3)nc(C)c(=O)n4C)no2)cc1OC	876
Cc1cccc(C)c1NC(=O)Cn1cnc2onc(C)c2c1=O	731
CC(C)NC(=O)c1cc(C(C)(C)C)[nH]n1	710
CC(C)NC(=O)c1ccc(OCC2CCN(C(=O)Cc3ccc(Cl)cc3)CC2)cc1	927
CC(C)Cn1c(=O)c(C(=O)NCc2cccnc2)nc2cccnc21	613
N#CC1=C(SCC(=O)NCc2ccccc2)NC(=O)CC1c1cccc([N+](=O)[O-])c1 (stereo unspecified)	803
CCNC(=O)c1ccc(-c2nc3cc(NS(=O)(=O)c4ccc(C(C)C)cc4)ccc3n2C)cc1	744
COc1ccc(-c2nnc(-c3ccc(C)c(S(=O)(=O)N4CCC(C)CC4)c3)o2)cc1OC	1150
CS(=O)(=O)N1CCc2cc(NC(=O)Nc3ccc(Br)cc3F)ccc21	954
O=C(NC1CC1)[C@@H]1C[C@H](Oc2ccccc2)CN1C(=O)COc1ccccc1	797
CCCn1cc(C2=CCN(C(=O)NCC3CCCO3)CC2)c2cccnc21 (stereo unspecified)	719
COC(=O)c1cc2c(=O)n(-c3nc4ccc(OC)cc4s3)ccc2nc1C	1160
COc1ccc2c(c1)C1(CCN(S(=O)(=O)c3ccc(F)cc3F)C1)C(=O)N2 (stereo unspecified)	841
CCCNC(=O)C1(CCO)CCN(c2ncccn2)C1 (stereo unspecified)	560
O=C(C1CC(=O)N(C2CCCCC2)C1)N1CCC2(CC1)NCCc1c2[nH]c2ccccc12 (stereo unspecified)	654
O=C(Nc1cccc2ccc(-n3ccnc3)nc12)c1ccsc1	615
Cc1cc(C2CCCN2C(=O)Cc2c(F)cccc2Cl)no1 (stereo unspecified)	829
CCC(=O)N(CC(=O)N1CCc2sccc2C1COc1cccc(OC)c1)CC1CCCO1 (stereo unspecified)	858
COC(=O)c1nnn(-c2cc(C)ccc2OC)c1C(=O)OC	862
CC(C)c1ccc(S(=O)(=O)NCC(c2cccnc2)c2c[nH]c3ccccc23)cc1 (stereo unspecified)	772
CCN1CCCn2cc(S(=O)(=O)NCc3cccc(C)c3)cc2C1=O	780
O=S(=O)(NC1CCCCC1)c1cc(-c2noc(C3CCCC3)n2)cs1	1230
COc1ccccc1-c1cc2c(=O)n(Cc3nc(-c4ccccc4OC)oc3C)ccn2n1	1020
O=C(CCc1conc1-c1ccccc1)NCc1ccc2c(c1)OCO2	806
Cc1nnc(-c2ccc3ccn(CC(=O)Nc4ccc(Cl)cc4F)c3c2)o1	887

Results, then the compound that gave them:

RP-LC retention time [s]	Compound
878	O=C(Cc1cccc2ccccc12)Nc1cc(-c2ccccn2)no1
565	Cc1ccnc(Nc2nc(CC(=O)N3CCN(S(C)(=O)=O)CC3)cs2)c1
784	CCc1nc2nccc(-c3ccc(OC)cc3)n2n1
605	CCCN1CCN(C(=O)c2cn(-c3cc(N4CCSCC4)ncn3)cn2)CC1
811	O=C(NCc1csc(C2CCN(S(=O)(=O)c3ccccc3F)CC2)n1)C1CCC1
701	COC(=O)CNC(=O)N1CCCC1c1cccc(F)c1 (stereo unspecified)
955	Cc1ccc(-c2nnc(-c3cccc(S(=O)(=O)NC(C)(C)CO)c3)o2)cc1
1190	CCCN(C(C)=O)c1nc(-c2ccc(C)cc2)cs1
614	CC(C)CCNC(=O)C1(CCO)CCN(c2ncccn2)C1 (stereo unspecified)
1040	CSc1cccc(NC(=O)C2CCCN(C(=O)Cc3cccc4ccccc34)C2)c1 (stereo unspecified)
1010	CCn1c(=O)c(N2CCC(NC(=O)Nc3ccccc3Cl)CC2)nc2ccccc21
1220	CC(C)(C)c1csc(-c2csc(S(=O)(=O)NCc3ccc(F)cc3F)c2)n1
743	Cc1nc2cc(N3CC(C(=O)NCc4ccc(Cl)cc4)CC3=O)ccc2o1 (stereo unspecified)
688	CCOC(=O)c1ccc(NC(=O)NCC2CCN(Cc3ccc(C)cc3)C2)cc1 (stereo unspecified)
1440	O=C(c1cc2ccccc2[nH]1)N1CCC(c2noc(C3CC3)n2)C1 (stereo unspecified)
588	COc1ccc(C(=O)CN(C(=O)N2CCN(C)CC2)S(=O)(=O)c2ccc(C)cc2)cc1
600	Cc1ccc2nc(NC(=O)CN3CCc4nc(NC(=O)C5CC5)sc4C3)sc2c1
835	CC(C)c1cc(C2CCCN2C(=O)NC(C)(C)C)on1 (stereo unspecified)
924	Cc1ccc(F)c(NS(=O)(=O)c2ccc(-c3nnc(C4CCC4)o3)o2)c1
592	CCNC(=O)CC1=C2CCCCC2NC1=O (stereo unspecified)

RP-LC retention time [s]	Compound
847	O=C(NC1CC1)[C@@H]1C[C@H](Oc2ccccc2)CN1C(=O)c1cc2ccccc2[nH]1
772	O=C(CN1C(=O)NC2(CCCCC2)C1=O)NCc1cccc(Br)c1
569	O=C(CCc1nnc2ccc(NCc3ccco3)nn12)N1CCN(c2ccccn2)CC1
840	O=C(NCCn1c(=O)n(Cc2ccc(F)cc2)c2cccnc21)c1nccc2ccccc12
1010	COc1ccc(-c2nc3cc(C)ccc3o2)cc1NC(=O)NCc1ccco1
640	COC(=O)Cn1c(=O)c(=O)n(CC(=O)OC)c2ccccc21
672	CCc1nc2c(c(=O)n1CC(=O)Nc1ccc(C)cc1)CN(Cc1ccccc1)CC2
652	CCCC(=O)Nc1cnc(N2CCNCC2)c(C(=O)N(CC(C)C)CC(C)C)c1
900	CCOc1cc(=O)n2c(c1C(=O)OCc1cccc(F)c1)CCCC2
672	O=C1OCC2=C1C(c1ccccc1)NC(=O)N2CC(=O)N1CCCCC1 (stereo unspecified)
878	COc1ccc(Cc2nc3nccc(-c4ccc(OC)cc4)n3n2)cc1
800	CCC(C)Nc1nc(-c2ccc(OC)cc2)nc2ccccc12 (stereo unspecified)
656	CC1(C(=O)NCCc2c[nH]c3ccccc23)CCCCC(=O)N1 (stereo unspecified)
623	CCOC(=O)C1=C(CN2CCN(C(C)CC)CC2)NC(=O)NC1c1ccc(F)cc1 (stereo unspecified)
736	O=C(O)c1cc2c(s1)CCN(C(=O)c1ccc(Cl)cc1)C2
997	CCCS(=O)(=O)N1CCCC(Cn2cc(COc3ccc4c(c3)CCC4)nn2)C1 (stereo unspecified)
717	C=CCn1c(C)c(CC(=O)NCC2CCCO2)c(=O)n2nc(-c3ccccc3)nc12 (stereo unspecified)
696	COc1ccc(Cl)cc1NC(=O)N1CCN(CCn2c(C(F)(F)F)nc3cccnc32)CC1
712	CCn1cnc2ccc(-c3noc(COc4ccccc4OC)n3)cc21
747	O=C(CN1CCN(Cc2ccccc2Cl)CC1)Nc1nc(-c2ccccc2)cs1
